Laboratory results as given in patent publication US20200239530A1, “COMPOUNDS AND METHODS OF MODULATING PROTEIN DEGRADATION” (Vividion Therapeutics, Inc., priority 2017, published 2020).

Tests used:
[1] = biological target: T1, RING1 E3 ubiquitin-protein ligase RING1 (Homo sapiens, UniProt Q06587); assay: Cysteine liganding, probe competition; format: binding
T1 construct: Cells were resuspended in cold PBS on ice and sonicated with a probe sonicator to achieve lysis; endogenous in cells
T1 sequence (Q06587 1-406): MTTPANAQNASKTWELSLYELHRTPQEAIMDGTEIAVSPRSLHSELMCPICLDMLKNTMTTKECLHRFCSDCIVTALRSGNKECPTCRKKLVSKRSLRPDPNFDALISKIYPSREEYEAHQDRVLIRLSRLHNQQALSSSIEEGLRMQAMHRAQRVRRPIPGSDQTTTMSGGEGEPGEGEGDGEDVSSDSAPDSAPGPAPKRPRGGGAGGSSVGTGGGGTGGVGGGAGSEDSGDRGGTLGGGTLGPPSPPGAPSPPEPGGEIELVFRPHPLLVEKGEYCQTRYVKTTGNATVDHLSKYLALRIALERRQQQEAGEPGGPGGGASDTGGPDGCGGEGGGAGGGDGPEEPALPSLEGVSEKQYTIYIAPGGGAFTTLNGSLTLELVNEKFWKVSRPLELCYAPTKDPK
Summary of the method: (§1)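 Probe competition in native proteome: 5 mg/ml lysate, compound 1 hr 25° C, then desthiobiotin iodoacetamide (10 mM stock) 1 hr 25° C; acetone ppt, urea/DTT reduction, iodoacetamide alkylation, trypsin, streptavidin pull-down.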

[2] = biological target: T2, MAPK10 Mitogen-activated protein kinase 10 (Homo sapiens, UniProt P53779); assay: Cysteine liganding, probe competition; format: binding; conditions: for 100 Max / 100 ave / 500 ave / 500 Max: uniprot P53779; for 500 Max: in % (unit assumed)
T2 construct: Cells were resuspended in cold PBS on ice and sonicated with a probe sonicator to achieve lysis; endogenous in cells
Summary of the method: as §1

T2 sequence (P53779 whole entry): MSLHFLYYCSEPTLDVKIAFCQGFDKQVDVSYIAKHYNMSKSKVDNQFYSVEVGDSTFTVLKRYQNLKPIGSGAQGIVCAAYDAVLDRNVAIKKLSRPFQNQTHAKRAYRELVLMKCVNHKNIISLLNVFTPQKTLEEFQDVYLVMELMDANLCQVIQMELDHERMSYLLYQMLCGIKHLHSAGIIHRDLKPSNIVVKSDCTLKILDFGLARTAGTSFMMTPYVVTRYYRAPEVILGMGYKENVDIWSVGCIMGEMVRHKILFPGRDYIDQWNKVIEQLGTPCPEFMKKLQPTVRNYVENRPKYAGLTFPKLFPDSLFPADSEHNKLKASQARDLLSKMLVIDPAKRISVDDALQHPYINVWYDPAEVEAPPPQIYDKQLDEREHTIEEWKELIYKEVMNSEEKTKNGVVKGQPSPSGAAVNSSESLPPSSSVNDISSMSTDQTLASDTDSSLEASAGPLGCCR

| SMILES | Liganded ([1]; RING1 Res# 72, uniprot Q06587) | Liganded ([2]; MAPK10 Res# 283, uniprot P53779) | 100 Max [2] | 100 ave [2] | 500 ave [2] | 500 Max [2] | Liganded ([1]; RING1 Res# 51, uniprot Q06587) | 100 Max ([1]; uniprot Q06587) | 100 ave ([1]; uniprot Q06587) |
| --- | --- | --- | --- | --- | --- | --- | --- | --- | --- |
| COc1ccc2c(c1)CCCN2C(=O)CCl [KB02] | YES | YES | 44.42 | 26.11 | 76.89 | 78.63 | – | – | – |
| O=C(CCl)Nc1cc(C(F)(F)F)cc(C(F)(F)F)c1 [KBO3] | YES | – | 17.22 | 12.33 | 40.875 | 44.06 | YES | 18.1 | 0.5 |
